This passage reports Ki results from BindingDB's records for doi:10.1021/jm0000416 (University of Paris, 2000).

Structures are written as SMILES. pKi: −log10 of the molar value. Numbered stars: 1 amine (or outer) side, 2 acyl side, 3 side chain; on linkers, the order of the positions; unused ones are H or OH. Square brackets hold non-standard residues; d marks the D form. Peptide text beside a SMILES is read from it. * marks the point of attachment. Heptanedioyl = O=C(CCCCCC(=O)[*:2])[*:1]; NMeNle = CCCC[C@H](NC)C(=O)O; Malonamoyl = NC(=O)CC(=O)*; Methoxyacetyl = COCC(=O)*; Isobutyryl = CC(C)C(=O)*; X3 = O=C(CS(=O)(=O)O)*; Boc = CC(C)(C)OC(=O)*; X2 = COC(=O)CC(=O)*; X4 = CC(=O)CC(=O)*; βAla = NCCC(=O)O

In the assay the target is Gastrin/cholecystokinin type B receptor (Cavia porcellus). Briefly: Binding affinity against cholecystokinin type B receptor on guinea pig cortex.
A word on the pKi: it is −log10 of the Ki, conventionally taken in molar units. Turning to `CCCC[C@@H](C(=O)N[C@@H](CC(=O)O)C(=O)N[C@@H](Cc1ccccc1)C(N)=O)N(C)C(=O)[C@H](Cc1c[nH]c2ccccc12)NC(=O)CC(N)=O` [3-(2-{[2-(2-Carbamoyl-acetylamino)-3-(1H-indol-3-yl)-propionyl]-methyl-amino}-hexanoylamino)-N-(1-carbamoyl-2-phenyl-ethyl)-succinamic acid] (Malonamoyl-W[NMeNle]DF-NH2), the pKi is 8.69.
On to `CCCC[C@@H](C(=O)N[C@@H](CC(=O)O)C(=O)N[C@@H](Cc1ccccc1)C(N)=O)N(C)C(=O)[C@@H](N)Cc1c[nH]c2ccccc12` [3-(2-{[2-Amino-3-(1H-indol-3-yl)-propionyl]-methyl-amino}-hexanoylamino)-N-(1-carbamoyl-2-phenyl-ethyl)-succinamic acid] (H-W[NMeNle]DF-NH2), for which the pKi is 8.59.
On to `CCCC[C@@H](C(=O)N[C@@H](CC(=O)O)C(=O)N[C@@H](Cc1ccccc1)C(N)=O)N(C)C(=O)[C@H](Cc1c[nH]c2ccccc12)NC(=O)CCN` [3-(2-{[2-(3-Amino-propionylamino)-3-(1H-indol-3-yl)-propionyl]-methyl-amino}-hexanoylamino)-N-(1-carbamoyl-2-phenyl-ethyl)-succinamic acid] (H-[βAla]W[NMeNle]DF-NH2), for which the negative logarithm of the Ki (pKi) is 7.02.
The molecule `CCCC[C@@H](C(=O)N[C@@H](CC(=O)O)C(=O)N[C@@H](Cc1ccccc1)C(N)=O)N(C)C(=O)[C@H](Cc1c[nH]c2ccccc12)NC(=O)CS(=O)(=O)O` [N-(1-Carbamoyl-2-phenyl-ethyl)-3-(2-{[3-(1H-indol-3-yl)-2-(2-sulfo-acetylamino)-propionyl]-methyl-amino}-hexanoylamino)-succinamic acid] (X3-W[NMeNle]DF-NH2) gave a pKi of 9.27.
In turn, `CCCC[C@@H](C(=O)N[C@@H](CC(=O)O)C(=O)N[C@@H](Cc1ccccc1)C(N)=O)N(C)C(=O)[C@H](Cc1c[nH]c2ccccc12)NC(=O)[C@H](C)N` [3-(2-{[2-(2-Amino-propionylamino)-3-(1H-indol-3-yl)-propionyl]-methyl-amino}-hexanoylamino)-N-(1-carbamoyl-2-phenyl-ethyl)-succinamic acid] showed a pKi of 7.70.
For `CCCC[C@@H](C(=O)N[C@@H](CC(=O)O)C(=O)N[C@@H](Cc1ccccc1)C(N)=O)N(C)C(=O)[C@H](Cc1c[nH]c2ccccc12)NC(=O)C(C)C` [N-(1-Carbamoyl-2-phenyl-ethyl)-3-(2-{[3-(1H-indol-3-yl)-2-isobutyrylamino-propionyl]-methyl-amino}-hexanoylamino)-succinamic acid] (Isobutyryl-W[NMeNle]DF-NH2), the pKi is 8.86.
The value for `CCCC[C@@H](C(=O)N[C@@H](CC(=O)O)C(=O)N[C@@H](Cc1ccccc1)C(N)=O)N(C)C(=O)[C@H](Cc1c[nH]c2ccccc12)NC(=O)CC(=O)OC` [N-(1-Carbamoyl-2-phenyl-ethyl)-3-(2-{[3-(1H-indol-3-yl)-2-(2-methoxycarbonyl-acetylamino)-propionyl]-methyl-amino}-hexanoylamino)-succinamic acid] (X2-W[NMeNle]DF-NH2) was 8.44; that for `CCCC[C@@H](C(=O)N[C@@H](CC(=O)O)C(=O)N[C@@H](Cc1ccccc1)C(N)=O)N(C)C(=O)[C@H](Cc1c[nH]c2ccccc12)NC(=O)COC` [N-(1-Carbamoyl-2-phenyl-ethyl)-3-(2-{[3-(1H-indol-3-yl)-2-(2-methoxy-acetylamino)-propionyl]-methyl-amino}-hexanoylamino)-succinamic acid] (Methoxyacetyl-W[NMeNle]DF-NH2) was 8.60.
The value for `CCCC[C@@H](C(=O)N[C@@H](CC(=O)O)C(=O)N[C@@H](Cc1ccccc1)C(N)=O)N(C)C(=O)[C@H](Cc1c[nH]c2ccccc12)NC(=O)CCNC(=O)OC(C)(C)C` [3-(2-{[2-(3-tert-Butoxycarbonylamino-propionylamino)-3-(1H-indol-3-yl)-propionyl]-methyl-amino}-hexanoylamino)-N-(1-carbamoyl-2-phenyl-ethyl)-succinamic acid] ({Boc-βAla}-W[NMeNle]DF-NH2) was 8.87.
The value for `CCCC[C@@H](C(=O)N[C@@H](CC(=O)O)C(=O)N[C@@H](Cc1ccccc1)C(N)=O)N(C)C(=O)[C@H](Cc1c[nH]c2ccccc12)NC(=O)CCCCCC(=O)O` [6-[1-({1-[1-(1-Carbamoyl-2-phenyl-ethylcarbamoyl)-2-carboxy-ethylcarbamoyl]-pentyl}-methyl-carbamoyl)-2-(1H-indol-3-yl)-ethylcarbamoyl]-hexanoic acid] (Heptanedioyl-W[NMeNle]DF-NH2) was 6.00; that for `CCCC[C@@H](C(=O)N[C@@H](CC(=O)O)C(=O)N[C@@H](Cc1ccccc1)C(N)=O)N(C)C(=O)[C@H](Cc1c[nH]c2ccccc12)NC(=O)CC(C)=O` [N-(1-Carbamoyl-2-phenyl-ethyl)-3-(2-{[3-(1H-indol-3-yl)-2-(3-oxo-butyrylamino)-propionyl]-methyl-amino}-hexanoylamino)-succinamic acid] (X4-W[NMeNle]DF-NH2) was 8.42.
